According to the supplement of paper PMC6045584:
± gives the standard deviation of the averaged measurements.

Columns and labels:
[1] = compound: Cc1nc(Nc2n[nH]c3c2CN(C(=O)N[C@H](CN(C)C)c2ccccc2)C3(C)C)c2sccc2n1; assay: surviving fraction relative to DMSO-only wells; higher = less growth inhibition; settings: exposure time: 5 days
In short: (§1)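 Tumour cell lines were grown to log phase and seeded at 250–500 cells per well in 384-well plates. They were exposed continuously to inhibitors at 0.5, 1, 5, 10, 50, 100, 500 and 1000 nM for five days, beginning 24 hours after seeding. Surviving fraction is CellTiter-Glo luminescence normalised to the median of DMSO-only wells.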

VINORELBINE = compound: CCC1=C[C@@H]2CN(C1)Cc1c([nH]c3ccccc13)[C@@](C(=O)OC)(c1cc3c(cc1OC)N(C)[C@H]1[C@@](O)(C(=O)OC)[C@H](OC(C)=O)[C@]4(CC)C=CCN5CC[C@]31[C@@H]54)C2 [VINORELBINE]; assay: as above; settings: exposure time: 5 days
In short: as §1

VCAP PROSTATE
surviving fraction ([1]; 0.5 nM): 0.665 ± 0.11 | surviving fraction ([1]; 1 nM): 0.496 ± 0.006 | surviving fraction ([1]; 5 nM): 0.428 ± 0.025 | surviving fraction ([1]; 10 nM): 0.398 ± 0.025 | surviving fraction ([1]; 50 nM): 0.451 ± 0.084 | surviving fraction ([1]; 100 nM): 0.397 ± 0.022 | surviving fraction ([1]; 500 nM): 0.245 ± 0.036 | surviving fraction ([1]; 1000 nM): 0.0417 ± 0.0063 | surviving fraction (VINORELBINE; 0.5 nM): 1.1 ± 0.096 | surviving fraction (VINORELBINE; 1 nM): 1.02 ± 0.035 | surviving fraction (VINORELBINE; 5 nM): 0.64 ± 0.04 | surviving fraction (VINORELBINE; 10 nM): 0.299 ± 0.031 | surviving fraction (VINORELBINE; 50 nM): 0.0883 ± 0.012 | surviving fraction (VINORELBINE; 100 nM): 0.0827 ± 0.021 | surviving fraction (VINORELBINE; 500 nM): 0.122 ± 0.0049 | surviving fraction (VINORELBINE; 1000 nM): 0.148 ± 0.022

MDAMB453 BREAST
surviving fraction ([1]; 0.5 nM): 1.14 ± 0.062 | surviving fraction ([1]; 1 nM): 1.03 ± 0.037 | surviving fraction ([1]; 5 nM): 0.648 ± 0.045 | surviving fraction ([1]; 10 nM): 0.598 ± 0.018 | surviving fraction ([1]; 50 nM): 0.416 ± 0.038 | surviving fraction ([1]; 100 nM): 0.359 ± 0.048 | surviving fraction ([1]; 500 nM): 0.23 ± 0.07 | surviving fraction ([1]; 1000 nM): 0.0803 ± 0.015 | surviving fraction (VINORELBINE; 0.5 nM): 1.04 ± 0.049 | surviving fraction (VINORELBINE; 1 nM): 1.029 ± 0.004 | surviving fraction (VINORELBINE; 5 nM): 0.387 ± 0.038 | surviving fraction (VINORELBINE; 10 nM): 0.244 ± 0.022 | surviving fraction (VINORELBINE; 50 nM): 0.16 ± 0.034 | surviving fraction (VINORELBINE; 100 nM): 0.116 ± 0.018 | surviving fraction (VINORELBINE; 500 nM): 0.176 ± 0.044 | surviving fraction (VINORELBINE; 1000 nM): 0.25 ± 0.048

MDAMB157 BREAST
surviving fraction ([1]; 0.5 nM): 0.841 ± 0.14 | surviving fraction ([1]; 1 nM): 0.792 ± 0.055 | surviving fraction ([1]; 5 nM): 0.623 ± 0.11 | surviving fraction ([1]; 10 nM): 0.545 ± 0.019 | surviving fraction ([1]; 50 nM): 0.405 ± 0.055 | surviving fraction ([1]; 100 nM): 0.29 ± 0.048 | surviving fraction ([1]; 500 nM): 0.159 ± 0.013 | surviving fraction ([1]; 1000 nM): 0.119 ± 0.021 | surviving fraction (VINORELBINE; 0.5 nM): 0.915 ± 0.076 | surviving fraction (VINORELBINE; 1 nM): 0.872 ± 0.076 | surviving fraction (VINORELBINE; 5 nM): 0.748 ± 0.084 | surviving fraction (VINORELBINE; 10 nM): 0.465 ± 0.045 | surviving fraction (VINORELBINE; 50 nM): 0.11 ± 0.026 | surviving fraction (VINORELBINE; 100 nM): 0.0867 ± 0.013 | surviving fraction (VINORELBINE; 500 nM): 0.0783 ± 0.015 | surviving fraction (VINORELBINE; 1000 nM): 0.12 ± 0.025

HELA CERVIX
surviving fraction ([1]; 0.5 nM): 1.1 ± 0.061 | surviving fraction ([1]; 1 nM): 1.11 ± 0.056 | surviving fraction ([1]; 5 nM): 0.936 ± 0.026 | surviving fraction ([1]; 10 nM): 0.741 ± 0.02 | surviving fraction ([1]; 50 nM): 0.4922 ± 0.0018 | surviving fraction ([1]; 100 nM): 0.478 ± 0.0081 | surviving fraction ([1]; 500 nM): 0.406 ± 0.016 | surviving fraction ([1]; 1000 nM): 0.341 ± 0.026 | surviving fraction (VINORELBINE; 0.5 nM): 1.05 ± 0.054 | surviving fraction (VINORELBINE; 1 nM): 1.02 ± 0.044 | surviving fraction (VINORELBINE; 5 nM): 1.04 ± 0.015 | surviving fraction (VINORELBINE; 10 nM): 0.778 ± 0.043 | surviving fraction (VINORELBINE; 50 nM): 0.145 ± 0.0031 | surviving fraction (VINORELBINE; 100 nM): 0.0838 ± 0.0042 | surviving fraction (VINORELBINE; 500 nM): 0.0347 ± 0.0015 | surviving fraction (VINORELBINE; 1000 nM): 0.0298 ± 0.0028

LM7 BONE
surviving fraction ([1]; 0.5 nM): 0.842 ± 0.039 | surviving fraction ([1]; 1 nM): 0.674 ± 0.036 | surviving fraction ([1]; 5 nM): 0.51 ± 0.0046 | surviving fraction ([1]; 10 nM): 0.457 ± 0.046 | surviving fraction ([1]; 50 nM): 0.386 ± 0.033 | surviving fraction ([1]; 100 nM): 0.327 ± 0.036 | surviving fraction ([1]; 500 nM): 0.115 ± 0.006 | surviving fraction ([1]; 1000 nM): 0.0547 ± 0.0084 | surviving fraction (VINORELBINE; 0.5 nM): 0.973 ± 0.062 | surviving fraction (VINORELBINE; 1 nM): 0.9683 ± 0.0047 | surviving fraction (VINORELBINE; 5 nM): 0.757 ± 0.023 | surviving fraction (VINORELBINE; 10 nM): 0.499 ± 0.062 | surviving fraction (VINORELBINE; 50 nM): 0.115 ± 0.0052 | surviving fraction (VINORELBINE; 100 nM): 0.105 ± 0.0081 | surviving fraction (VINORELBINE; 500 nM): 0.0943 ± 0.011 | surviving fraction (VINORELBINE; 1000 nM): 0.122 ± 0.013

SCC90 HEADNECK
surviving fraction ([1]; 0.5 nM): 0.981 ± 0.092 | surviving fraction ([1]; 1 nM): 0.893 ± 0.19 | surviving fraction ([1]; 5 nM): 0.516 ± 0.016 | surviving fraction ([1]; 10 nM): 0.523 ± 0.027 | surviving fraction ([1]; 50 nM): 0.488 ± 0.04 | surviving fraction ([1]; 100 nM): 0.467 ± 0.028 | surviving fraction ([1]; 500 nM): 0.185 ± 0.016 | surviving fraction ([1]; 1000 nM): 0.177 ± 0.034 | surviving fraction (VINORELBINE; 0.5 nM): 1.04 ± 0.072 | surviving fraction (VINORELBINE; 1 nM): 1.04 ± 0.06 | surviving fraction (VINORELBINE; 5 nM): 1.01 ± 0.12 | surviving fraction (VINORELBINE; 10 nM): 0.616 ± 0.066 | surviving fraction (VINORELBINE; 50 nM): 0.126 ± 0.0029 | surviving fraction (VINORELBINE; 100 nM): 0.099 ± 0.0066 | surviving fraction (VINORELBINE; 500 nM): 0.097 ± 0.01 | surviving fraction (VINORELBINE; 1000 nM): 0.106 ± 0.015

OSHN BONE
surviving fraction ([1]; 0.5 nM): 1.06 ± 0.037 | surviving fraction ([1]; 1 nM): 1.01 ± 0.019 | surviving fraction ([1]; 5 nM): 0.4963 ± 0.004 | surviving fraction ([1]; 10 nM): 0.361 ± 0.026 | surviving fraction ([1]; 50 nM): 0.31 ± 0.017 | surviving fraction ([1]; 100 nM): 0.347 ± 0.031 | surviving fraction ([1]; 500 nM): 0.366 ± 0.015 | surviving fraction ([1]; 1000 nM): 0.279 ± 0.018 | surviving fraction (VINORELBINE; 0.5 nM): 1.07 ± 0.022 | surviving fraction (VINORELBINE; 1 nM): 1.048 ± 0.0086 | surviving fraction (VINORELBINE; 5 nM): 1.09 ± 0.021 | surviving fraction (VINORELBINE; 10 nM): 1.04 ± 0.021 | surviving fraction (VINORELBINE; 50 nM): 0.0367 ± 0.0021 | surviving fraction (VINORELBINE; 100 nM): 0.025 ± 0.001 | surviving fraction (VINORELBINE; 500 nM): 0.026 | surviving fraction (VINORELBINE; 1000 nM): 0.0293 ± 0.00058

HCT15 LARGE INTESTINE
surviving fraction ([1]; 0.5 nM): 0.998 ± 0.043 | surviving fraction ([1]; 1 nM): 1.019 ± 0.009 | surviving fraction ([1]; 5 nM): 1.04 ± 0.03 | surviving fraction ([1]; 10 nM): 1.04 ± 0.011 | surviving fraction ([1]; 50 nM): 0.869 ± 0.061 | surviving fraction ([1]; 100 nM): 1.02 ± 0.036 | surviving fraction ([1]; 500 nM): 0.172 ± 0.013 | surviving fraction ([1]; 1000 nM): 0.428 ± 0.023 | surviving fraction (VINORELBINE; 0.5 nM): 1.1 ± 0.066 | surviving fraction (VINORELBINE; 1 nM): 1.06 ± 0.043 | surviving fraction (VINORELBINE; 5 nM): 1.04 ± 0.085 | surviving fraction (VINORELBINE; 10 nM): 0.957 ± 0.058 | surviving fraction (VINORELBINE; 50 nM): 0.99 ± 0.064 | surviving fraction (VINORELBINE; 100 nM): 0.819 ± 0.093 | surviving fraction (VINORELBINE; 500 nM): 0.183 ± 0.026 | surviving fraction (VINORELBINE; 1000 nM): 0.106 ± 0.0059

MFM223 BREAST
surviving fraction ([1]; 0.5 nM): 1.11 ± 0.074 | surviving fraction ([1]; 1 nM): 1.03 ± 0.049 | surviving fraction ([1]; 5 nM): 0.827 ± 0.015 | surviving fraction ([1]; 10 nM): 0.637 ± 0.051 | surviving fraction ([1]; 50 nM): 0.474 ± 0.021 | surviving fraction ([1]; 100 nM): 0.349 ± 0.038 | surviving fraction ([1]; 500 nM): 0.14 ± 0.013 | surviving fraction ([1]; 1000 nM): 0.0562 ± 0.005 | surviving fraction (VINORELBINE; 0.5 nM): 1.13 ± 0.1 | surviving fraction (VINORELBINE; 1 nM): 1.05 ± 0.066 | surviving fraction (VINORELBINE; 5 nM): 0.905 ± 0.094 | surviving fraction (VINORELBINE; 10 nM): 0.512 ± 0.01 | surviving fraction (VINORELBINE; 50 nM): 0.0818 ± 0.0055 | surviving fraction (VINORELBINE; 100 nM): 0.0723 ± 0.011 | surviving fraction (VINORELBINE; 500 nM): 0.0547 ± 0.00076 | surviving fraction (VINORELBINE; 1000 nM): 0.0517 ± 0.0023

HOS BONE
surviving fraction ([1]; 0.5 nM): 1.02 ± 0.018 | surviving fraction ([1]; 1 nM): 0.957 ± 0.014 | surviving fraction ([1]; 5 nM): 0.583 ± 0.02 | surviving fraction ([1]; 10 nM): 0.409 ± 0.03 | surviving fraction ([1]; 50 nM): 0.234 ± 0.015 | surviving fraction ([1]; 100 nM): 0.233 ± 0.0055 | surviving fraction ([1]; 500 nM): 0.194 ± 0.0038 | surviving fraction ([1]; 1000 nM): 0.112 ± 0.0079 | surviving fraction (VINORELBINE; 0.5 nM): 1.05 ± 0.05 | surviving fraction (VINORELBINE; 1 nM): 1.01 ± 0.011 | surviving fraction (VINORELBINE; 5 nM): 1.05 ± 0.034 | surviving fraction (VINORELBINE; 10 nM): 0.967 ± 0.031 | surviving fraction (VINORELBINE; 50 nM): 0.13 ± 0.012 | surviving fraction (VINORELBINE; 100 nM): 0.0783 ± 0.0015 | surviving fraction (VINORELBINE; 500 nM): 0.03 ± 0.0035 | surviving fraction (VINORELBINE; 1000 nM): 0.033 ± 0.0027
